“Also recorded” adds a separate entry of the source.
Key:
C57BL/6 mice [1] = assay: Oral glucose tolerance test; format: in vivo, mouse; settings: NAD+ 0.3, 1, 3 mg/kg single IP 30 minutes before oral glucose 2 g/kg, overnight-fasted normal mice
Protocol: For an oral glucose tolerance test, the mice were fasted overnight, 2 g/kg (body weight) of glucose was orally administered (by oral gavage), and blood glucose levels were measured immediately before oral administration (0 minute) and 15, 30, 60, and 120 minutes after the oral administration. 30 minutes prior to glucose administration, NAD+(0.3, 1 and 3 mg/kg) was intraperitoneally administered.
To examine an effect of single IP injection of NAD+ on the glucose tolerance, an oral glucose tolerance test was performed on ND-fed C57BL/6 mice that were fasted overnight. A single IP dose of NAD+(0.3, 1 and 3 mg/kg) was administered to the mice, and glucose (2 g/kg) was orally administered thereto after 30 minutes. Thereafter, blood glucose levels were measured at 15, 30, 60, and 120 minutes.

rodents = settings: exogenous NAD+ administration; cited from earlier work
[2] = tested on: cultured neuronal cells, astrocytes, and cardiac myocytes; settings: cells treated with NAD+; cited from earlier work
HFD-fed obese mice [3] = assay: Circadian rhythm of feed intake and physical activity (CLAMS) after chronic IP injection; format: in vivo, mouse; settings: NAD+ 0.3 mg/kg/day IP 4 weeks, CLAMS 24 hours
Protocol: (§1) Mature male C57BL/6 mice were purchased from ORIENT BIO Inc. (Gyeonggi-do, Republic of Korea). Unless stated otherwise, the mice were freely fed a standard diet (Cargill Agri Purina, Inc., Seoul, Republic of Korea). To establish a diet-induced obesity (DIO) model, the mice were fed a HFD (60% fats, Research Diet Co., New Brunswick, N.J.) for 20 weeks. The animals were raised at a controlled temperature (22±1° C.) under a 12-hour light/dark cycle (a light condition from 08:00 a.m. to 8:00 p.m.) For experiments of single administration of NAD+ and NMN, 8-week-old mice were fasted overnight, and NAD+(purchased from Sigma, administered at 0.3, 1 and 3 mg/kg) or NMN (purchased from Sigma, administered at 30, 100, and 300 mg/kg) was intraperitoneally administered to the mice between 09:00 a.m. and 10:00 a.m. For ? chronic NAD+ treatment, NAD+(0.3 mg/kg body weight/day) was intraperitoneally injected once to the mice immediately before the lights went off for 4 weeks.
The feed intake and physical activity of mice were measured using a comprehensive laboratory animal monitoring system (CLAMS, Columbus Instruments) (n=4 to 5). The light and feeding conditions were maintained under the same conditions as in a home cage. Water was freely provided during an observation period.
Further, an effect of chronic IP injection of NAD+ on the feed intake was verified as follows. To examine a chronic effect of the NAD+ intraperitoneal injection on the feed intake, NAD+(0.3 mg/kg) or saline was administered to the following three groups of mice once a day for 4 weeks: an IP saline-injected group of mice fed the ND, an IP saline-injected group of mice fed the HFD, and an IP NAD+-injected group of mice fed the HFD.
To test an effect of habitual IP injection of NAD+(0.3 mg/kg/day) on mobility in an obese animal model, the mice were divided into three groups, that is, an IP saline-injected group of mice fed the ND, an IP saline-injected group of mice fed the HFD, and an IP NAD+-injected group of mice fed the HFD and the mobility thereof was evaluated.

C57BL/6 mice [4] = assay: Feeding study, single intraperitoneal administration: food intake; format: in vivo, mouse
Protocol: as §1
(§2) A predetermined dose of NAD+ or NMN was administered to C57BL/6 mice, which were fasted overnight, during an early light phase (09:00 to 11:00) by using a given method. The same amount of a vehicle (i.e., physiological saline) was administered to the control mice.

C57BL/6 mice [5] = assay: Feeding study, single intravascular (ICV, third ventricle cannula) administration: food intake and body weight; format: in vivo, mouse
Protocol: as §1
Permanent 26-gauge stainless steel cannulae were surgically inserted into the third ventricles of mice (a cannula insertion position: 1.8 mm posterior to bregma and 5.0 mm below the sagittal sinus). For surgery, the mice were anesthetized with a mixture of Zoletil and Rumpun (2:1 v/v, 10 μL/g body weight). The exact cannulation positions of the cannulae were confirmed through a positive dipsogenic response after angiotensin II (50 ng) was administered. Only the mice in which the cannulae were precisely positioned were used for data analyses. After a recovery period of 7 days after the surgery, the mice were daily touched for a predetermined time over a week to minimize a stress response to the experiments. Immediately before administration, NAD+ and NMN were dissolved in 0.9% saline and used. The NAD+ and NMN were dissolved in 2 μL of saline for intravascular administration.
as §2

HFD-fed obese mice [6] = assay: Chronic IP injection for 4 weeks: body weight and side effects in ND-fed and HFD-fed (diet-induced obesity) mice; format: in vivo, mouse; settings: for body weight vs saline-injected group: NAD+ 0.3 mg/kg/day IP once a day for 4 weeks, 0.3 mg/kg/day
Protocol: as §1
Additionally, an effect of chronic IP injection of NAD+ on the body weight was also examined (FIG. 4). The mice were divided into four groups (a group of ND-fed mice to which saline was IP injected, a group of ND-fed mice to which NAD+ was IP injected, a group of HFD-fed mice to which saline was IP injected, and a group of HFD-fed mice to which NAD+ was IP injected), and NAD+ was intraperitoneally administered to the mice at a dose of 0.3 mg/kg/day once a day for 4 weeks.

[7] = NR supplementation; cited from earlier work
NQO1 = NQO1 (Homo sapiens, UniProt P15559); settings: cited from earlier work
Chain of NQO1 (P15559 whole entry, species assumed): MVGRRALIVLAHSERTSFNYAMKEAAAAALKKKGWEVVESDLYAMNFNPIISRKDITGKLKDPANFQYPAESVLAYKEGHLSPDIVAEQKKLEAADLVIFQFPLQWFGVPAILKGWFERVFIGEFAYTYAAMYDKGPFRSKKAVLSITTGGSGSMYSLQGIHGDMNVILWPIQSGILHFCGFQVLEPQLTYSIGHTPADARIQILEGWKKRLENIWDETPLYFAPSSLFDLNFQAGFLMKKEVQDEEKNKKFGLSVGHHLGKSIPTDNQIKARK

[8] = tested on: diabetic mice fed a high-fat diet; settings: cited from earlier work

SMILES: NC(=O)c1ccc[n+]([C@@H]2O[C@H](COP(=O)([O-])OP(=O)(O)OC[C@H]3O[C@@H](n4cnc5c(N)ncnc54)[C@H](O)[C@@H]3O)[C@@H](O)[C@H]2O)c1 [NAD+, nicotinamide adenine dinucleotide]
- blood glucose level at 15 and 30 minutes after glucose administration vs saline (C57BL/6 mice [1]): significantly reduced; also recorded: much lower blood glucose level
- ischemic brain damage and cardiomegaly (rodents): improves
- apoptosis induced by oxidative stress [2]: reduced
- daytime feed intake (HFD-fed obese mice [3]): significantly reduced
- nighttime feed intake (HFD-fed obese mice [3]): did not significantly reduce
- food intake frequency (HFD-fed obese mice [3]; 0.3 mg/kg/day): suppressed a high food intake frequency of the obese mice to a normal mouse level; also recorded: significantly reduced
- nighttime physical activity (mobility) (HFD-fed obese mice [3]; 0.3 mg/kg/day): remarkably restored
- food intake at 4 hours vs saline (C57BL/6 mice [4]; NAD+ 1 mg/kg single IP): significantly reduced
- food intake at 4 hours vs saline (C57BL/6 mice [4]; NAD+ 0.3, 1, 3 mg/kg single IP, overnight-fasted mice): significantly reduced
- weight gain / body weight for 24 hours vs saline (C57BL/6 mice [5]; NAD+ 0.2 pmol single intracerebroventricular (ICV)): significantly suppressed; also recorded: reduced the body weight; also recorded: significantly reduced level of weight gain
- food intake vs saline (C57BL/6 mice [5]; NAD+ 0.2, 1, 2 pmol single intracerebroventricular (ICV), overnight-fasted mice, observed for 24 hours, effect maintained at 24 hours): significantly reduced; also recorded: reduced food intake
- time at which decrease in food intake started after administration (C57BL/6 mice [5]; NAD+ single intracerebroventricular (ICV)): 2 h
- body weight vs saline-injected group (HFD-fed obese mice [6]; HFD-fed obese mice): significantly reduced; also recorded: significant effect; also recorded: significant decrease
- side effects of chronic injection (HFD-fed obese mice [6]; NAD+ 0.3 mg/kg/day IP, 4 weeks): did not cause any notable side effects
- body weight vs saline-injected group (HFD-fed obese mice [6]; ND-fed normal mice): did not induce a weight loss; also recorded: not significantly different

SMILES: NC(=O)c1ccc[n+]([C@@H]2O[C@H](CO)[C@@H](O)[C@H]2O)c1 [NR, nicotinamide riboside]
- NAD+ level in peripheral tissues such as liver and skeletal muscles [7]: increases
- NAD+ level in the brain [7]: does not increase

SMILES: CC1(C)CCC2=C(O1)c1ccccc1C(=O)C2=O [βL]
- NAD+, NAD+/NADH, and NADP+/NADPH ratios (NQO1): increase

SMILES: NC(=O)c1ccc[n+]([C@@H]2O[C@H](COP(=O)([O-])O)[C@@H](O)[C@H]2O)c1 [NMN, nicotinamide mononucleotide, reference compound]
- food intake at 4 hours vs saline (C57BL/6 mice [4]; NMN 300 mg/kg single IP): significantly reduced level of food intake
- food intake at 24 hours vs control (C57BL/6 mice [4]; NMN 30, 100, 300 mg/kg single IP): did not have a reduced food intake; also recorded: not maintained; also recorded: no decrease in food intake
- NAD+ level in the liver, adipose tissues, and skeletal muscles ([8]; IP NMN, HFD-fed diabetic mice): successfully increases
- glucose tolerance ([8]; NMN, diabetic mice): restores damaged glucose tolerance
- food intake vs saline (C57BL/6 mice [5]; NMN 10 pmol single ICV, 24 hours after injection): reduced; also recorded: much lower level of food intake
- change in body weight for 24 hours vs control (C57BL/6 mice [5]; NMN 10, 100, 1,000 pmol single ICV): no significant difference; also recorded: did not cause a change in body weight

Reference: patent publication US20180207190A1, “COMPOSITION CONTAINING NAD FOR PREVENTING AND TREATING OBESITY OR IMPAIRED GLUCOSE TOLERANCE” (UNIVERSITY OF ULSAN FOUNDATION FOR INDUSTRY COOPERATION, priority 2015, published 2018)
